Assay results as given in paper PMC10266688 (PLOS ONE, 2023).
Values joined by “and” are separate entries in the source; they are usually repeats but may differ in a detail not shown here. Equal values may be shown once.

What was measured:
[1] = tested on: proteasome (4UbFL reporter); assay: 4UbFL reporter in ES2-4UbFL tumor and leg muscle of nude mice; assay type: in vivo, mouse; conditions: single IP dose Up284 20mg/kg or bortezomib 0.75 mg/kg, 4 h and 24 h
Procedure: A-C) Female nude mice were inoculated IP with ES2-luc cells, a human ovarian cancer line expressing luciferase. […] The IP tumor tissue and electroporated normal muscle tissue, being spatially distinct, were identified with separate regions of interest (ROI) after simultaneous imaging with IVIS.
Briefly mice were inoculated IP with ES2 cells stably expressing 4UbFL. After 48 h, the mice were injected with luciferin, imaged and then randomized into 3 groups (n = 5/group). Next, leg muscle of each mouse was electroporated with 4UbFL plasmid (considered as normal tissue). After 48 h (i.e. day 4) the mice were re-imaged and basal bioluminescence (0 h) was separately measured in the leg muscle and peritoneal ROIs.

[2] = Single administration dose escalation study (MTD, body weight, clinical observations), female CD1 mice; assay type: in vivo; conditions: for Body weight change, Mean / Body weight change: day 7 vs initial weight; for Body weight change, Mean: group mean
Procedure: Mice were dosed on day 1 and clinical condition recorded at 0.5 h, 2 h, 4 h, 6 h, and days 1–7 (S6 Table).
Gc - general condition observation
X - treatment with compound or vehicle

## N#Cc1ccc(/C=C2/C(=O)/C(=C/c3ccc(C#N)cc3)C23CCNCC3)cc1 [Up284]
[1]
  4UbFL bioluminescence signal in muscle tissue vs tumor: similarly enhanced the bioluminescence signal
[2]; IP 40 mg/kg single dose, day 0, group mean
  Body weight, Mean: 24.20 g
[2]; IP 40 mg/kg single dose, day 0, individual mice, 40 mg/kg
  Body weight: 25.6 g and 24.3 g and 22.7 g
[2]; IP 40 mg/kg single dose, day 1, group mean
  Body weight, Mean: 22.83 g
[2]; IP 40 mg/kg single dose, day 1, individual mice, 40 mg/kg
  Body weight: 23.9 g and 22.7 g and 21.9 g
[2]; IP 40 mg/kg single dose, day 2, group mean
  Body weight, Mean: 22.97 g
[2]; IP 40 mg/kg single dose, day 2, individual mice, 40 mg/kg
  Body weight: 23.3 g and 22.3 g
[2]; IP 40 mg/kg single dose, day 3, group mean
  Body weight, Mean: 23.80 g
[2]; IP 40 mg/kg single dose, day 3, individual mice, 40 mg/kg
  Body weight: 24.2 g and 24.5 g and 22.7 g
[2]; IP 40 mg/kg single dose, day 4, group mean
  Body weight, Mean: 23.87 g
[2]; IP 40 mg/kg single dose, day 4, individual mice, 40 mg/kg
  Body weight: 24.5 g and 24.6 g and 22.5 g
[2]; IP 40 mg/kg single dose, day 5, group mean
  Body weight, Mean: 24.43 g
[2]; IP 40 mg/kg single dose, day 5, individual mice, 40 mg/kg
  Body weight: 25.0 g and 25.1 g and 23.2 g
[2]; IP 40 mg/kg single dose, day 6, group mean
  Body weight, Mean: 24.13 g
[2]; IP 40 mg/kg single dose, day 6, individual mice, 40 mg/kg
  Body weight: 25.3 g and 24.6 g and 22.5 g
[2]; IP 40 mg/kg single dose, day 7, group mean
  Body weight, Mean: 24.83 g
[2]; IP 40 mg/kg single dose, day 7, individual mice, 40 mg/kg
  Body weight: 26.2 g and 24.5 g and 23.8 g
[2]; IP 40 mg/kg single dose
  Body weight change, Mean: 2.67%
[2]; IP 40 mg/kg single dose, individual mice, 40 mg/kg
  Body weight change: 2.34% and 0.82% and 4.85%
[2]; IP 40 mg/kg, day 0, 0.5 h, individual mice
  Clinical observation: DPEh
[2]; IP 40 mg/kg, day 0, 2 h, individual mice
  Clinical observation: HDPEh
[2]; IP 40 mg/kg, day 0, 4 h, individual mice
  Clinical observation: HDPEh
[2]; IP 40 mg/kg, day 0, 6 h, individual mice
  Clinical observation: DPEh
[2]; IP 40 mg/kg, day 0, time 0, individual mice
  Clinical observation: 0
[2]; IP 40 mg/kg, day 1, individual mice, 40 mg/kg
  Clinical observation: 0
[2]; IP 40 mg/kg, day 2, individual mice
  Clinical observation: 0
[2]; IP 40 mg/kg, day 3, individual mice
  Clinical observation: 0
[2]; IP 40 mg/kg, day 4, individual mice
  Clinical observation: 0
[2]; IP 40 mg/kg, day 5, individual mice
  Clinical observation: 0
[2]; IP 40 mg/kg, day 6, individual mice
  Clinical observation: 0
[2]; IP 40 mg/kg, day 7, individual mice
  Clinical observation: 0
[2]; IP 60 mg/kg single dose, day 0, group mean
  Body weight, Mean: 24.00 g
[2]; IP 60 mg/kg single dose, day 0, individual mice, 60 mg/kg
  Body weight: 24.4 g and 25.1 g and 22.5 g
[2]; IP 60 mg/kg single dose, day 1, individual mice
  Body weight: died
[2]; IP 60 mg/kg single dose
  Body weight change, Mean: -100.00%
[2]; IP 60 mg/kg, day 0, 0.5 h, individual mice
  Clinical observation: DPEh
[2]; IP 60 mg/kg, day 0, 2 h, individual mice
  Clinical observation: HDPEh
[2]; IP 60 mg/kg, day 0, 4 h, individual mice
  Clinical observation: HDPEh
[2]; IP 60 mg/kg, day 0, 6 h, individual mice
  Clinical observation: DPEh
[2]; IP 60 mg/kg, day 0, time 0, individual mice
  Clinical observation: 0
[2]; IP 60 mg/kg, day 1, individual mice
  Clinical observation: died
[2]; IV 40 mg/kg single dose, day 0, group mean
  Body weight, Mean: 24.50 g
[2]; IV 40 mg/kg single dose, day 0, individual mice, 40 mg/kg
  Body weight: 26.2 g and 23.2 g and 24.1 g
[2]; IV 40 mg/kg single dose, day 1, group mean
  Body weight, Mean: 23.90 g
[2]; IV 40 mg/kg single dose, day 1, individual mice, 40 mg/kg
  Body weight: 25.5 g and 22.6 g and 23.6 g
[2]; IV 40 mg/kg single dose, day 2, group mean
  Body weight, Mean: 24.07 g
[2]; IV 40 mg/kg single dose, day 2, individual mice, 40 mg/kg
  Body weight: 25.7 g and 22.4 g and 24.1 g
[2]; IV 40 mg/kg single dose, day 3, group mean
  Body weight, Mean: 25.03 g
[2]; IV 40 mg/kg single dose, day 3, individual mice, 40 mg/kg
  Body weight: 26.5 g and 23.6 g and 25.0 g
[2]; IV 40 mg/kg single dose, day 4, group mean
  Body weight, Mean: 25.23 g
[2]; IV 40 mg/kg single dose, day 4, individual mice, 40 mg/kg
  Body weight: 27.7 g and 22.9 g and 25.1 g
[2]; IV 40 mg/kg single dose, day 5, group mean
  Body weight, Mean: 25.17 g
[2]; IV 40 mg/kg single dose, day 5, individual mice, 40 mg/kg
  Body weight: 28.0 g and 23.0 g and 24.5 g
[2]; IV 40 mg/kg single dose, day 6, group mean
  Body weight, Mean: 24.97 g
[2]; IV 40 mg/kg single dose, day 6, individual mice, 40 mg/kg
  Body weight: 27.2 g and 22.6 g and 25.1 g
[2]; IV 40 mg/kg single dose, day 7, group mean
  Body weight, Mean: 25.07 g
[2]; IV 40 mg/kg single dose, day 7, individual mice, 40 mg/kg
  Body weight: 27.2 g and 23.2 g and 24.8 g
[2]; IV 40 mg/kg single dose
  Body weight change, Mean: 2.24%
[2]; IV 40 mg/kg single dose, individual mice, 40 mg/kg
  Body weight change: 3.82% and 0.00% and 2.90%
[2]; IV 40 mg/kg, day 0, 2 h, individual mice
  Clinical observation: 0
[2]; IV 40 mg/kg, day 0, 4 h, individual mice
  Clinical observation: 0
[2]; IV 40 mg/kg, day 0, 6 h, individual mice
  Clinical observation: 0
[2]; IV 40 mg/kg, day 0, time 0, individual mice
  Clinical observation: 0
[2]; IV 40 mg/kg, day 1, individual mice
  Clinical observation: 0
[2]; IV 40 mg/kg, day 2, individual mice
  Clinical observation: 0
[2]; IV 40 mg/kg, day 3, individual mice
  Clinical observation: 0
[2]; IV 40 mg/kg, day 4, individual mice
  Clinical observation: 0
[2]; IV 40 mg/kg, day 5, individual mice
  Clinical observation: 0
[2]; IV 40 mg/kg, day 6, individual mice
  Clinical observation: 0
[2]; IV 40 mg/kg, day 7, individual mice
  Clinical observation: 0
[2]; IV 60 mg/kg single dose, day 0, group mean
  Body weight, Mean: 24.43 g
[2]; IV 60 mg/kg single dose, day 0, individual mice, 60 mg/kg
  Body weight: 26.0 g and 22.7 g and 24.6 g
[2]; IV 60 mg/kg single dose, day 1, group mean
  Body weight, Mean: 24.47 g
[2]; IV 60 mg/kg single dose, day 1, individual mice, 60 mg/kg
  Body weight: 26.7 g and 22.6 g and 24.1 g
[2]; IV 60 mg/kg single dose, day 2, group mean
  Body weight, Mean: 24.77 g
[2]; IV 60 mg/kg single dose, day 2, individual mice, 60 mg/kg
  Body weight: 27.1 g and 23.4 g and 23.8 g
[2]; IV 60 mg/kg single dose, day 3, group mean
  Body weight, Mean: 24.73 g
[2]; IV 60 mg/kg single dose, day 3, individual mice, 60 mg/kg
  Body weight: 26.5 g and 23.7 g and 24.0 g
